Among the data in ChEMBL document CHEMBL1158921, “Antitumor agents, 116. Cytotoxic triterpenes from Maytenus diversifolia” (1990) are EC50 and Activity values, retold here.

≈ marks a conversion by molar mass, not a printed value. Calls of active or inactive are those of the source. The rule behind the calls is not given here.

Type in all cases: functional
One experiment relates to KB. Put plainly: Cytotoxicity against human KB cells.
In another experiment the test system is L1210. Put plainly: Cytotoxicity against mouse L1210 cells.
In the next experiment the test system is A549. Briefly: Cytotoxicity against human A549 cells. Particulars: for EC50: read-out: ED50 (the source's name).
The mark [1] stands for this setting: read-out: ED50 (the source's name).

For the compound `C[C@H]1C(=O)CC[C@@H]2[C@]1(C)CC[C@H]1[C@@]2(C)CC[C@@]2(C)[C@@H]3CC(C)(C)CC[C@]3(C(=O)O)CC[C@]12C`, the figures for the EC50 in the experiment with KB (setting [1]), in the experiment on L1210 (setting [1]) and with A549 were 3.7 µg/mL (≈ 8.1 µM), 2.95 µg/mL (≈ 6.46 µM) and 1.18 µg/mL (≈ 2.58 µM), respectively.

For the compound `C[C@H]1[C@H](C)CC[C@]2(C(=O)O)CC[C@]3(C)C(=CC[C@@H]4[C@@]5(C)CC[C@H](O)C(C)(C)[C@@H]5CC[C@]43C)[C@H]12`, the result in the experiment with KB, in the experiment on L1210 and with A549 was Active.

For the compound `C[C@H]1C(=O)CC[C@@H]2[C@]1(C)CC[C@H]1[C@@]2(C)CC[C@@]2(C)[C@@H]3C[C@](C)(C(=O)O)CC[C@]3(C)CC[C@]12C` [MAYTENOIC ACID], in the experiment on A549, the EC50 worked out at 0.21 µg/mL (≈ 0.46 µM).

Consider `C[C@H]1C(=O)CC[C@@H]2[C@]1(C)CC[C@H]1[C@@]2(C)CC[C@@]2(C)[C@@H]3C[C@](C)(CO)CC[C@]3(CO)CC[C@]12C`, for which the EC50 in the experiment with A549 was 0.64 µg/mL (≈ 1.4 µM).
